Experimental data reported in publication doi:10.1101/487637v1, “Chemogenetic ligands for translational neurotheranostics” (biorxiv, 2018).

Experiments:
[1] = target: T1, hM4Di (Homo sapiens, UniProt P08173, Y113C/A203G); experiment: [3H]clozapine competition, HEK-293 membranes; type: binding; settings: 2.5 nM [3H]clozapine, 50 mM Tris-HCl pH 7.4, 10 mM MgCl2, RT, 2 h
T1 construct: gene CHRM4; human M4 muscarinic receptor DREADD; AAV plasmid Addgene #89150; transiently expressed in HEK-293 cells; docking model prints Y113G/A203G, the standard DREADD is Y113C/A203G
T1 sequence (P08173 1-479 Y113C/A203G): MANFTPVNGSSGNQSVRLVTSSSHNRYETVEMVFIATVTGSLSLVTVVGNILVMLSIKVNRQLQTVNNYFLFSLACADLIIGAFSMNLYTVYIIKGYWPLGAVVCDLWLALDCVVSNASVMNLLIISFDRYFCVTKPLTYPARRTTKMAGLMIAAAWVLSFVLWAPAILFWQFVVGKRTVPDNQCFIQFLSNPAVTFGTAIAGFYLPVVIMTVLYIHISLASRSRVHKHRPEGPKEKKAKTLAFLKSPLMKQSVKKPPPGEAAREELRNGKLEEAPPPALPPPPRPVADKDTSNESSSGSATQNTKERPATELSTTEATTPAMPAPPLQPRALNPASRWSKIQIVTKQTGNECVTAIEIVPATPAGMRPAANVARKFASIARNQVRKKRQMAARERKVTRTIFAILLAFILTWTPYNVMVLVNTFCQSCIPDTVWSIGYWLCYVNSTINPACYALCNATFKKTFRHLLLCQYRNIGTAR

[2] = target: T2, hM3Dq (Homo sapiens, UniProt P20309, Y149C/A239G); experiment: [3H]clozapine competition, HEK-293 membranes; type: binding; settings: 2.5 nM [3H]clozapine, 50 mM Tris-HCl pH 7.4, 10 mM MgCl2, RT, 2 h
T2 construct: gene CHRM3; human M3 muscarinic receptor DREADD; AAV plasmid Addgene #89149; transiently expressed in HEK-293 cells

[3] = target: T3, hM4Di (Homo sapiens, UniProt P08173, A203G/Y113C); experiment: [3H]clozapine competition, HEK-293 membranes; type: binding
T3 construct: gene CHRM4; human M4 muscarinic receptor DREADD; AAV plasmid Addgene #89150; transiently expressed in HEK-293 cells; docking model prints Y113G/A203G, the standard DREADD is Y113C/A203G
T3 sequence (P08173 1-479 Y113C/A203G): T1 sequence (P08173 1-479 Y113C/A203G)

[4] = target: T1, hM4Di; experiment: BRET Galpha-o1 activation, HEK-293; type: cell-based; settings: agonist; PBS; Galpha-Rluc8, beta1, gamma2-mVenus
[5] = target: T4, hM3Dq (Homo sapiens, UniProt P20309, A239G/Y149C); experiment: [3H]clozapine competition, HEK-293 membranes; type: binding
T4 construct: gene CHRM3; human M3 muscarinic receptor DREADD; AAV plasmid Addgene #89149; transiently expressed in HEK-293 cells
T4 sequence (P20309 whole entry Y149C/A239G): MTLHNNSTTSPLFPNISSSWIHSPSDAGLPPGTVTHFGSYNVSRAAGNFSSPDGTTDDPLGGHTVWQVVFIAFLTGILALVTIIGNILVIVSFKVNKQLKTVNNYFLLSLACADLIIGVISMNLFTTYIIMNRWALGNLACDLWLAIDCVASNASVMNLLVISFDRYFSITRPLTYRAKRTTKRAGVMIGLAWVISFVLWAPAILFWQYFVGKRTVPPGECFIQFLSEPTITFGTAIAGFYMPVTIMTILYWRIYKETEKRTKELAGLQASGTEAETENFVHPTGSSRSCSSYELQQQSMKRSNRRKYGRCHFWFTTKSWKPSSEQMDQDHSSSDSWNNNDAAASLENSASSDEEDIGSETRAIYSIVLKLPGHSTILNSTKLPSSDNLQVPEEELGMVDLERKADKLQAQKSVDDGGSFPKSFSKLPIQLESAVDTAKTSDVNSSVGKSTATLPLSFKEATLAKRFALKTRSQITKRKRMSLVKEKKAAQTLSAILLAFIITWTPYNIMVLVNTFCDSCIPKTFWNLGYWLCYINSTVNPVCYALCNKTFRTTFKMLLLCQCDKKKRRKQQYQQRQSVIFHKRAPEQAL

T2 sequence (P20309 whole entry Y149C/A239G): as above

Structure (SMILES) | Ki [1] | Ki [2] | Ki [3] | EC50 [4] | Ki [5]
CCN1CCN(C2=Nc3cc(Cl)ccc3Nc3ccccc32)CC1 [C13, Compound 13] | 0.0043 µM | 0.0043 µM | – | – | –
c1ccc2c(c1)N=C(N1CCNCC1)c1ccccc1N2 [C21, Compound 21] | – | – | 0.091 µM | C21 was less potent than clozapine at Gi/o activation in cells or tissue expressing hM4Di | 0.23 µM
CN1CCN(C2=Nc3cc(Cl)ccc3Nc3ccccc32)CC1 [CLZ, clozapine] | – | – | – | C21 was less potent than clozapine at Gi/o activation in cells or tissue expressing hM4Di | –
